Assays:
H460 [1] = assay: Internalization assay, flow cytometry, H460; assay type: cell-based, human; conditions: FITC-conjugated CIGB-552 5 and 50 μM, 1 h
Protocol: (§1) Cells were seeded in 12-well plates (1 × 10^5 cells/well) and cultured in either D-MEM or RPMI supplemented with Glutamax, 10% (v/v) FBS, at 37 °C for 24 h. For those samples where internalization was analyzed by microscopy, round coverslips were placed into the wells prior to cell seeding. Subsequently, FITC-conjugated CIGB-552, was added to the cells to a final concentration of 5 μM or 50 μM and was incubated for 1 h at either 4 °C or 37 °C. For flow cytometry readout, culture medium was removed, cells were washed using phosphate-buffered saline (PBS) and surface-bound FITC-peptide was quenched with 0.4% (w/v) Trypan Blue solution. Cells were trypsinized and samples were acquired using Cyan ADP Flow Cytometer equipped with a 488 nm laser and a FL1 emission filter (530/40 nm). For data acquisition and analysis Summit v4.3 (Beckman Coulter, Fullerton, CA, USA) and FlowJo v.7.6.5 software (BD, Ashland, OR, USA) were used. For microscopy assays, cells were fixed in 4% (w/v) paraformaldehyde (PFA) for 15min, permeabilized using 0.2% (v/v) Tween 20 solution in PBS, and nuclei were stained using TOPRO-3 (1 μM, Life Technologies) and CellMask^TM membrane marker (1:2000, Life Technologies).
Data was expressed as the mean ± Standard Deviation of triplicates of one representative experiment, three independent experiments were executed. Statistic calculations were performed using Statistica software (STATSOFT, Hamburg, Germany). Differences were considered statistically significant when p < 0.05 using Mann-Whitney U Test.

MCF-7 [2] = assay: Internalization assay, flow cytometry, MCF-7; assay type: cell-based, human; conditions: FITC-conjugated CIGB-552 5 and 50 μM, 1 h
Protocol: as §1
(§2) Data was expressed as the mean ± Standard Deviation of triplicates of one representative experiment, three independent experiments were executed. […]

HT-29 [3] = conditions: HT-29 cell line; read-out: cytotoxicity, IC50 value; cited from earlier work
Description: Table 1 CIGB-552 cytotoxicity in H460, HT-29 and MCF-7 cell lines (expressed by the IC50 value in μM); D-amino acids are indicated in small and italic characters. | column: HT-29

H460 [4] = conditions: H460 cell line; read-out: cytotoxicity, IC50 value; cited from earlier work
Description: Table 1 CIGB-552 cytotoxicity in H460, HT-29 and MCF-7 cell lines (expressed by the IC50 value in μM); D-amino acids are indicated in small and italic characters. | column: H460

HT-29 [5] = assay: Internalization assay, flow cytometry, HT-29; assay type: cell-based, human; conditions: FITC-conjugated CIGB-552 5 and 50 μM, 1 h
Protocol: as §1, §2

MCF-7 [6] = conditions: MCF-7 cell line; read-out: cytotoxicity, IC50 value; cited from earlier work
Description: Table 1 CIGB-552 cytotoxicity in H460, HT-29 and MCF-7 cell lines (expressed by the IC50 value in μM); D-amino acids are indicated in small and italic characters. | column: MCF-7

COMMD1 protein = target: T1, COMMD1 protein (Homo sapiens, UniProt Q8N668); assay: Protein complementation assay (PCA), Venus; assay type: cell-based; conditions: MCF-7 and H460 cells co-transfected with Venus 1 / Venus 2 plasmids containing COMMD1 or L2; confocal microscopy
T1 construct: Venus fragment (Venus 1 or Venus 2); expressed in transfected cells; host or cells: MCF-7 and H460 cells, co-transfected with pCDNA3.1 Venus 1 / Venus 2 plasmids using Lipofectamine 2000
Protocol: L2 peptide, which was chemically modified in its primary structure to generate the CIGB-552, was used for the protein complementation assay. Cells were seeded in 12-well plates containing round coverslips (1 × 10^5 cells/well) and cultured in either DMEM or RPMI supplemented with Glutamax, 10% (v/v) FBS, at 37 °C for 24 h. Cells were co-transfected with the plasmids pCDNA3.1 Venus 1 and pCDNA3.1 Venus 2 each one containing either COMMD1 protein or L2 peptide. Transfection was performed with Lipofectamine 2000 (Thermo Fisher, Waltham, MA, USA) using a ratio of 1:2 DNA:lipofectamine ([…]). […]
All images were taken using laser confocal microscope Leica TCS SP5 equipped with a 63X NA 1.42 oil immersion objective (Leica Microsystems, Wetzlar, Germany). […] Quantification of the number of fully loaded cells was performed using 10 single optical sections for each cell line by using the Manual Counting plugin provided in Icy 1.9.5.1v imaging software. In order to assess fluorescence intensity both in cytoplasm and nuclei, images were taken in identical conditions (laser power, photomultiplier voltage, line and frame average and zoom) for all cell lines and 10 single optical sections were used for the analysis. […]

[7] = MFI at 4 °C referred to MFI at 37 °C

T1 sequence (Q8N668 whole entry, the tested form may be a part): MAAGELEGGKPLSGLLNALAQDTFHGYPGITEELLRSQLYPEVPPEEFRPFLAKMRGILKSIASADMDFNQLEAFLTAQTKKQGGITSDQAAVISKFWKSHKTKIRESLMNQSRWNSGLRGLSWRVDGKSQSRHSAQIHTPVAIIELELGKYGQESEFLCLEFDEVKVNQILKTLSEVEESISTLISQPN

| Substance | temperature effect on internalization (H460 [1]; 4 °C versus 37 °C) | internalization levels (median fluorescent intensity, MFI) (H460 [1]; 37 °C, surface-bound peptide quenched with 0.4% Trypan Blue) | contribution of the transduction mechanism to internalization (H460 [1]; [7]) | temperature effect on internalization (MCF-7 [2]; 4 °C versus 37 °C) | contribution of the transduction mechanism to internalization (MCF-7 [2]; [7]) | IC50 (HT-29 [3]) | IC50 (H460 [4]) | temperature effect on internalization (HT-29 [5]; 4 °C versus 37 °C) | contribution of the transduction mechanism to internalization (HT-29 [5]; [7]) | IC50 (MCF-7 [6]) | in situ interaction with COMMD1 (fluorescence emission of Venus protein) (COMMD1 protein) |
| --- | --- | --- | --- | --- | --- | --- | --- | --- | --- | --- | --- |
| Ac-HARIKpTFRRlKWKYKGKFW [CIGB-552, twenty-amino-acid novel synthetic peptide, AMP-derived, cell penetrating, pro-apoptotic through COMMD1] | higher reduction in internalization levels | highest internalization levels | less than 50% | reduction in the internalization | more than 50% | 166 ± 66 µM | 23 ± 8 µM | higher reduction in internalization levels | less than 50% | 338 ± 39 µM | – |
| HARIKPTFRRLKWKYKGKFW [L2] | – | – | – | – | – | – | – | – | – | – | likely to interact |

Reference: paper PMC6017325, “Cell Penetrating Capacity and Internalization Mechanisms Used by the Synthetic Peptide CIGB-552 and Its Relationship with Tumor Cell Line Sensitivity” (Molecules : A Journal of Synthetic Chemistry and Natural …, 2018)
